Here are results for one compound from patent publication US20220152067A1, “Cancer Immunotherapy Adjuvant” (lndustry-Academic Cooperation Foundation, Yonsei University, priority 2019, published 2022).

What all share (assay type): in vivo, C57BL/6 male mice
The subject of series [1] is VE-cadherin. The series can be described thus: Adherent junction expression in mouse tumor (IHC staining). The settings on record: drug administered for 14 days. The procedure:
(§1) MC-38 colorectal cancer cells (5×10^5 cells) were injected subcutaneously into 7-week-old C57BL/6 male mice. Seven days after the colorectal cancer cells were injected, the average tumor volume of the subcutaneous MC-38 tumor was about 40 mm^3. The injection method of the mouse tumor as described above was equally applied to all four groups below. Afterwards, the experimental group was divided into the vehicle administration control group, SAC-1004 and anti-PD1 co-administration group, SAC-1004 single administration group, and anti-PD1 single administration group, and the experiment was performed.
Specifically, the administration was performed as follows. SAC-1004, a vascular leak inhibitor, was dissolved in DMSO in PBS, and 1 mg per kg of mouse body weight was administered daily by intravenous injection. […]
In a total of 4 groups consisting of control group, SAC-1004 and anti-PD1 co-administration group, SAC-1004 single administration group, and anti-PD1 single administration group, the expression of adherent junction in the tumor of the mouse treated with the drug as described above in the experimental animal model was analyzed except that the drug was administered for 14 days by daily administration of SAC-1004 for 7 days and administration of anti-PD1 3 times a week. […]

For series [2], the system named is MC38 colorectal cancer cell line. Put plainly: Tumor size change in mice after MC38 colorectal cancer cell line injection and drug administration. The settings on record: subcutaneous MC-38 tumor, drug administration for 7 days; statistically proved by two-way ANOVA. On the procedure:
as §1
(§2) Specifically, the administration was performed as follows. SAC-1004, a vascular leak inhibitor, was dissolved in DMSO in PBS, and 1 mg per kg of mouse body weight was administered daily by intravenous injection. Anti-PD1, an immune checkpoint inhibitor, was administered at the concentration of 200 ng/mouse by intraperitoneal injection 3 times a week along with 200 ng of rat igG2a. […]
In a total of 4 groups consisting of control group, SAC-1004 and anti-PD1 co-administration group, SAC-1004 single administration group, and anti-PD1 single administration group, the tumor size changes according to the drug administration for 7 days as described above in the experimental animal model were analyzed.

The test system is the same in series [3]. Put plainly: Tumor weight of mice after MC38 injection and drug administration. The settings on record: MC38 model, 7 days; statistically proved by one-way ANOVA. On the procedure: as §1, §2
In a total of 4 groups consisting of control group, SAC-1004 and anti-PD1 co-administration group, SAC-1004 single administration group, and anti-PD1 single administration group, the tumor weight of mice treated with the drug for 7 days as described above in the experimental animal model was analyzed.

The nature of series [4]: Spleen size and weight of mice after MC38 injection and drug administration. The settings on record: MC38 model, 7 days; not statistically significant by one-way ANOVA. On the procedure: as §1, §2
In a total of 4 groups consisting of control group, SAC-1004 and anti-PD1 co-administration group, SAC-1004 single administration group, and anti-PD1 single administration group, the spleen size of mice treated with the drug for 7 days as described above in the experimental animal model was analyzed.

As to `COC(=O)CCC/C=C(\C)[C@H]1CCC2C3CC=C4C[C@@H](OC5C=C[C@H](OC(C)=O)[C@@H](COC(C)=O)O5)CC[C@]4(C)C3CC[C@@]21C` (stereo partly shown) [SAC-1004], the “ratio of intratumoral VE-cadherin” value in series [1] is given as “increased”. The tumor size result in series [2] is on record as “reduced compared to that in the control group”. Also, the tumor weight entry in series [3] is “lower than that of the anti-PD1 single administration group mice”. Further, in series [4], the spleen weight result is on record as “higher than that of the control group mice”.
